This is an account of results in US11178871B2, “Herbicidal pyrimidine compounds” (BASF SE, priority 2016, dated 2021).

Common to all, as to assay type: in vivo
Experiment [1] has as its system Echinocloa crus-galli. The experiment is described as follows: greenhouse test, pre-emergence treatment, ECHCG. The conditions noted are these: 2000 g/ha. From the text: (§1) The culture containers used were plastic flowerpots containing loamy sand with approximately 3.0% of humus as the substrate. The seeds of the test plants were sown separately for each species.
(§2) For the pre-emergence treatment, the active ingredients, which had been suspended or emulsified in water, were applied directly after sowing by means of finely distributing nozzles. The containers were irrigated gently to promote germination and growth and subsequently covered with transparent plastic hoods until the plants had rooted. This cover caused uniform germination of the test plants, unless this had been impaired by the active ingredients.
(§3) Depending on the species, the plants were kept at 10-25° C. or 20-35° C., respectively.
(§4) The test period extended over 2 to 4 weeks. During this time, the plants were tended, and their response to the individual treatments was evaluated.
(§5) Evaluation was carried out using a scale from 0 to 100. 100 means no emergence of the plants, or complete destruction of at least the aerial moieties, and 0 means no damage, or normal course of growth. A good herbicidal activity is given at values of at least 70 and a very good herbicidal activity is given at values of at least 85.
(§6) The plants used in the greenhouse experiments were of the following species: […]

Experiment [2] has as its system Apera spica-venti. Nature of the experiment: greenhouse test, pre-emergence treatment, APESV.
Source text: as §1, §2, §3, §4, §5, §6

In experiment [3] the test system is Echinocloa crus-galli. Nature of the experiment: greenhouse test, post-emergence treatment, ECHCG. The conditions noted are these: post-emergence.
Source text: as §1
(§7) For the post-emergence treatment, the test plants were first grown to a height of 3 to 15 cm, depending on the plant habit, and only then treated with the active ingredients which had been suspended or emulsified in water. For this purpose, the test plants were either sown directly and grown in the same containers, or they were first grown separately as seedlings and transplanted into the test containers a few days prior to treatment.
as §3, §4, §5, §6

In experiment [4] the test system is Avena fatua. The experiment is described as follows: greenhouse test, post-emergence treatment, AVEFA.
Source text: as §1, §7, §3, §4, §5, §6

The test system of experiment [5] is Alopecurus myosuroides. The experiment is described as follows: greenhouse test, post-emergence treatment, ALOMY. The conditions noted are these: post-emergence.
Source text: as §1, §7, §3, §4, §5, §6

As to `Cc1nc(C)c(-c2nc(C3CC3)ncc2-c2cc(F)ccc2Cl)o1` [Ex. 284], the herbicidal activity entry in experiment [1], in experiment [2] (2000 g/ha), in experiment [3] (2000 g/ha), in experiment [4] (2000 g/ha) and in experiment [5] (2000 g/ha) was “very good (a very good herbicidal activity is given at values of at least 85)” each time.
For `COC(=O)C(C)c1nc(C2CC2)ncc1-c1cc(F)ccc1Cl` (stereo not drawn) [Ex. 159], the herbicidal activity result in experiment [1] is recorded as “good (A good herbicidal activity is given at values of at least 70)”; in experiment [2] (2000 g/ha), “good (A good herbicidal activity is given at values of at least 70)”; in experiment [4] (2000 g/ha) it was “very good (a very good herbicidal activity is given at values of at least 85)”; in experiment [5] (2000 g/ha) it was “very good (a very good herbicidal activity is given at values of at least 85)”.
Take `Cc1oc(C(C)C)nc1-c1nc(C2CC2)ncc1-c1ccccc1Cl` [Ex. 283]: the herbicidal activity entry is reported as “good (A good herbicidal activity is given at values of at least 70)” in experiment [1]; “very good (a very good herbicidal activity is given at values of at least 85)” in experiment [2] (2000 g/ha); “very good (a very good herbicidal activity is given at values of at least 85)” in experiment [3] (2000 g/ha); “very good (a very good herbicidal activity is given at values of at least 85)” in experiment [4] (2000 g/ha); “very good (a very good herbicidal activity is given at values of at least 85)” in experiment [5] (2000 g/ha).
Turning to `COc1cnc(O)nc1-c1nc(C2CC2)ncc1-c1ccccc1Cl` [Ex. 250], the herbicidal activity result in experiment [1], in experiment [2] (2000 g/ha), in experiment [3] (2000 g/ha), in experiment [4] (2000 g/ha) and in experiment [5] (2000 g/ha) was “very good (a very good herbicidal activity is given at values of at least 85)” each time.
As to `Cc1ncoc1-c1nc(C2CC2)ncc1-c1cc(F)ccc1Cl` [Ex. 236], the herbicidal activity result in experiment [1], in experiment [2] (2000 g/ha), in experiment [3] (2000 g/ha), in experiment [4] (2000 g/ha) and in experiment [5] (2000 g/ha) was “very good (a very good herbicidal activity is given at values of at least 85)” throughout.
For `Cc1ccoc1-c1nc(C2CC2)ncc1-c1ccccc1I` [Ex. 77], the herbicidal activity entry in experiment [4] (1000 g/ha) and in experiment [5] (1000 g/ha) was “very good (a very good herbicidal activity is given at values of at least 85)” throughout.
With `COC(=O)Cc1nc(C2CC2)ncc1-c1ccccc1Cl` [Ex. 32], the herbicidal activity entry in experiment [1], in experiment [2] (2000 g/ha), in experiment [3] (2000 g/ha), in experiment [4] (2000 g/ha) and in experiment [5] (2000 g/ha) was “very good (a very good herbicidal activity is given at values of at least 85)” throughout.
For `Clc1ccccc1-c1cnc(C2CC2)nc1/C=C/c1ccco1` [Ex. 94], the herbicidal activity entry in experiment [2] (2000 g/ha), in experiment [4] (2000 g/ha) and in experiment [5] (2000 g/ha) was “very good (a very good herbicidal activity is given at values of at least 85)” throughout.
Take `Brc1ccccc1-c1cnc(C2CC2)nc1-c1ccoc1` [Ex. 40]: the herbicidal activity result in experiment [1], in experiment [2] (2000 g/ha), in experiment [4] (2000 g/ha) and in experiment [5] (2000 g/ha) was “very good (a very good herbicidal activity is given at values of at least 85)” each time.
In the case of `Cc1ccc(-c2nc(C3CC3)ncc2-c2cc(F)c(F)cc2Cl)o1` [Ex. 79], the herbicidal activity entry in experiment [4] (1000 g/ha) and in experiment [5] (1000 g/ha) was “very good (a very good herbicidal activity is given at values of at least 85)” in each case.
In the case of `Fc1cccc(Cl)c1-c1cnc(C2CC2)nc1-c1ccco1` [Ex. 60], the herbicidal activity result in experiment [4] (1000 g/ha) and in experiment [5] (1000 g/ha) was “very good (a very good herbicidal activity is given at values of at least 85)” in each case.
For `Cc1ccc(-c2nc(C3CC3)ncc2-c2ccc(F)cc2I)o1` [Ex. 81], the herbicidal activity entry in experiment [4] (1000 g/ha) and in experiment [5] (1000 g/ha) was “very good (a very good herbicidal activity is given at values of at least 85)” in each case.
On to `Fc1ccc(-c2cnc(C3CC3)nc2-c2ccco2)c(Cl)c1` [Ex. 54], for which the herbicidal activity result in experiment [2] (1000 g/ha), in experiment [3] (1000 g/ha) and in experiment [4] (1000 g/ha) was “very good (a very good herbicidal activity is given at values of at least 85)” each time.
With `COC(=O)Cc1nc(C2CC2)ncc1-c1ccccc1Br` [Ex. 67], the herbicidal activity entry in experiment [2] (2000 g/ha) is “very good (a very good herbicidal activity is given at values of at least 85)”; in experiment [3] (2000 g/ha), “good (A good herbicidal activity is given at values of at least 70)”; in experiment [4] (2000 g/ha), “very good (a very good herbicidal activity is given at values of at least 85)”; in experiment [5] (2000 g/ha), “very good (a very good herbicidal activity is given at values of at least 85)”.
As for `CCOP(=O)(OCC)C(OS(C)(=O)=O)c1nc(C2CC2)ncc1-c1ccccc1Cl` (stereo not drawn) [Ex. 89], the herbicidal activity result in experiment [2] (2000 g/ha) is “good (A good herbicidal activity is given at values of at least 70)”; in experiment [4] (2000 g/ha) it was “good (A good herbicidal activity is given at values of at least 70)”; in experiment [5] (2000 g/ha), “very good (a very good herbicidal activity is given at values of at least 85)”.
As for `COCc1nc(C2CC2)ncc1-c1ccccc1Cl` [Ex. 22], the herbicidal activity result in experiment [2] (1000 g/ha), in experiment [3] (1000 g/ha), in experiment [4] (1000 g/ha) and in experiment [5] (1000 g/ha) was “very good (a very good herbicidal activity is given at values of at least 85)” each time.
On to `Clc1ccccc1-c1cnc(C2CC2)nc1C=C1CCCC1` [Ex. 128], for which the herbicidal activity result in experiment [2] (2000 g/ha) is “very good (a very good herbicidal activity is given at values of at least 85)”; in experiment [3] (2000 g/ha), “very good (a very good herbicidal activity is given at values of at least 85)”; in experiment [4] (2000 g/ha), “very good (a very good herbicidal activity is given at values of at least 85)”; in experiment [5] (2000 g/ha), “good (A good herbicidal activity is given at values of at least 70)”.
On to `Cc1ncoc1-c1nc(C2CC2)ncc1-c1ccc(C(F)(F)F)cc1Cl` [Ex. 264], for which the herbicidal activity entry in experiment [4] (500 g/ha) and in experiment [5] (500 g/ha) was “very good (a very good herbicidal activity is given at values of at least 85)” throughout.
For `Fc1ccc(-c2cnc(C3CC3)nc2-c2cc3cc(Cl)ccc3o2)c(Cl)c1` [Ex. 44], the herbicidal activity entry in experiment [3] (1000 g/ha) and in experiment [4] (1000 g/ha) was “very good (a very good herbicidal activity is given at values of at least 85)” each time.
